Reference: paper PMC11211886 (Frontiers in Pharmacology, 2024)
Several values for one entry are separate records, joined by “and”; a condition that tells them apart may be missing. Equal values may be shown once. Read-outs that look alike come from different tables or passages of the source.

What was measured:
plasma proteins = experiment: Plasma protein binding (RED), dog plasma; assay type: in vitro ADME
Protocol: The plate containing plasma and buffer was equilibrated for 6 h in a 37°C water shaking bath. After incubation, aliquots of buffer and plasma (20 µL) on both sides were collected and precipitated using organic solvents. […] The post-dialysis recovery of amdizalisib was also measured.

CYP3A4/5 = experiment: Reversible CYP inhibition in HLM, CYP3A4/5 (testosterone, midazolam); assay type: in vitro ADME, human
Protocol: The markers used to determine the activities of CYP isoforms were phenacetin O-deethylation for CYP1A2 (probe substrate: 50 µM phenacetin), bupropion hydroxylation for CYP2B6 (probe substrate: 70 µM bupropion), paclitaxel 6α-hydroxylation for CYP2C8 (probe substrate: 10 µM paclitaxel), diclofenac 4′-hydroxylation for CYP2C9 (probe substrate: 5 µM diclofenac), S-(+)-mephenytoin 4′-hydroxylation for CYP2C19 (probe substrate: 20 µM S-(+)-mephenytoin), dextromethorphan O-demethylation for CYP2D6 (probe substrate: 6 µM dextromethorphan), chlorzoxazone 6′-hydroxylation for CYP2E1 (probe substrate: 70 µM chlorzoxazone), and testosterone 6β-hydroxylation and midazolam 1′-hydroxylation for CYP3A4/5 (probe substrate: 45 µM testosterone and 5 µM midazolam). […] Alpha-naphthoflavone (0.04 µM), 2-phenyl-2-(1-piperidinyl)propane (5 µM), quercetin (1 µM), sulfaphenazole (0.5 µM), ticlopidine (4 µM), quinidine (0.2 µM), diethyldithiocarbamate (20 µM), and ketoconazole (0.05 µM) were used as positive inhibitors of CYP1A2, 2B6, 2C8, 2C9, 2C19, 2D6, 2E1, and 3A4, respectively. The vehicle control was prepared in the same composition as inhibitor solutions but free of inhibitors. The concentrations of probe substrates were close to Km values that were determined in-house and within the range recommended by the FDA ([Huang et al., 2007]). Reaction mixtures were incubated at 37°C for 5, 20, or 30 min, depending on the probe substrates of CYP isoforms. The reactions were terminated by adding cold acetonitrile containing IS, and the terminated incubation mixtures were centrifuged at 3,000 g for 10 min before LC-MS/MS analysis.

CYP2D6 = biological target: T1, CYP2D6 (Homo sapiens, UniProt P10635); experiment: Time-dependent CYP inhibition in HLM, CYP2D6; assay type: in vitro ADME; details: 10 μM, 30 min pre-incubation with NADPH
T1 construct: tissue Life Technologies (Durham, NC, USA); host or cells: human liver microsomes
T1 sequence (P10635 whole entry): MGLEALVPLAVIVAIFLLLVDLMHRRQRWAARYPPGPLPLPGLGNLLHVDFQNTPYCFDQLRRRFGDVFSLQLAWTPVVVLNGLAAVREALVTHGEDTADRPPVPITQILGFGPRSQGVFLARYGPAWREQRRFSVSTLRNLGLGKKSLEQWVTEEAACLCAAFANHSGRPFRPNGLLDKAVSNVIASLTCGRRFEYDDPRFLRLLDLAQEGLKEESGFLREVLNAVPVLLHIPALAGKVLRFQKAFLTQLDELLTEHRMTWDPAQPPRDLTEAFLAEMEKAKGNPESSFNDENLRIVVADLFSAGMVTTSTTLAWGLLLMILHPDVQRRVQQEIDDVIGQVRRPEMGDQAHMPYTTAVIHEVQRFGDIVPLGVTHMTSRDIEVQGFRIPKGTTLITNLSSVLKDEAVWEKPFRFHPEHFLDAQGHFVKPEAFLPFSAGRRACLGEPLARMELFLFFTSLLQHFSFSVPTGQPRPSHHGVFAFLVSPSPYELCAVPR
Protocol: The procedure of time-dependent CYP inhibition was similar to that used for CYP reversible inhibition, as mentioned above, except that a pre-incubation step was added. […] Another appropriate volume of the NADPH-regenerating system and probe substrate were added to initiate the CYP isoform enzyme activity test step. For this step, the incubation period was 10 min, except for CYP2B6, CYP2C8, and CYP3A4/5 (probe substrate: midazolam), which was 3 min to make sure the reaction was under initial linear rates. After incubation for the designated time periods at 37°C, the ice-cold acetonitrile containing IS was added to quench the reaction. […] (Ainactivator/[…] represents the enzyme activity remaining due to the inhibition by the diluted inactivator in the enzyme activity test step, and (Ainactivator/[…] represents the remaining enzyme activity due to pre-incubation loss plus inhibition by the diluted inactivator in the enzyme activity test step.

CYP2B6 = details: male, human, 48 h
Protocol: (§1) […] […] […] Enzyme activity for each CYP isoform was reported as a fold change over vehicle control and the percent of positive control (detailed calculation in Supplementary 1.1). Hepatocytes were harvested with a lysis buffer from RNeasy 96 Kit (Qiagen Inc., Germantown, MD, USA) to isolate RNA, which was analyzed by real-time quantitative polymerase chain reaction (RT-PCR). […] Emax (the maximal observed induction) and EC50 (the concentration that supports half-maximal induction) were estimated by non-linear regression of fold increase in CYP mRNA expression versus concentration plots.
(§2) The fold of vehicle control and the percent of positive control were calculated with the formulas below:
(§3) Fold of vehicle control = CYPs activity of test compound (or positive control) treated sample / CYPs activity of vehicle control treated sample
(§4) % of positive control = [(fold change in treated sample)-1] / [(fold change in positive control)-1] × 100
Based on the enzyme activity, a minimum of 2-fold increase compared to vehicle control for the positive control and ≥40% of the positive control for the test article was considered as the cutoff for a positive signal in in vitro induction assay.

CYP3A4 = experiment: CYP induction in human hepatocytes, CYP3A4 enzyme activity; assay type: in vitro ADME
Protocol: as §1, §2, §3, §4

CYP2B6 mRNA = experiment: CYP induction in human hepatocytes, CYP2B6 mRNA (RT-PCR)
Protocol: as §1, §4
Based on the gene expression, a minimum of 4-fold increase of positive control compared to vehicle control, a minimum of 2-fold increase of the test article compared vehicle control and increased in a concentration-dependent manner was considered as the cutoff for a positive signal in in vitro induction assay.

[1] = Cytotoxicity on human hepatocytes in induction assay; assay type: cell-based; details: 20 μM, CYP2C induction evaluation (data not shown)
Protocol: as §1

[2] = cited from earlier work

## C[C@H](Nc1ncnc(N)c1C#N)c1cc2ncc(Cl)n2nc1-c1ccccc1 [Amdizalisib]
Plasma proteins; 0.1 µM
  Binding fraction to plasma proteins, Dog: 87.7 ± 5.15%
Plasma proteins; 1 µM
  Binding fraction to plasma proteins, Dog: 89.1 ± 0.83%
Plasma proteins; 20 µM
  Binding fraction to plasma proteins, Dog: 88.8 ± 0.69%
CYP3A4/5; CYP3A4_Midazolam, 0.08 μM
  enzyme activity remaining: 93.8% and 105%
CYP3A4/5; CYP3A4_Midazolam, 0.4 μM
  enzyme activity remaining: 106% and 103%
CYP3A4/5; CYP3A4_Midazolam, 2 μM
  enzyme activity remaining: 103% and 100%
CYP3A4/5; CYP3A4_Midazolam, 10 μM
  enzyme activity remaining: 99.4% and 101%
CYP3A4/5; CYP3A4_Midazolam, 50 μM
  enzyme activity remaining: 89.1% and 86.3%
CYP3A4/5; CYP3A4_Testosterone, 0.08 μM
  enzyme activity remaining: 101% and 99.4%
CYP3A4/5; CYP3A4_Testosterone, 0.4 μM
  enzyme activity remaining: 86.1% and 90.5%
CYP3A4/5; CYP3A4_Testosterone, 2 μM
  enzyme activity remaining: 89.9% and 94.3%
CYP3A4/5; CYP3A4_Testosterone, 10 μM
  enzyme activity remaining: 83.5% and 84.8%
CYP3A4/5; CYP3A4_Testosterone, 50 μM
  enzyme activity remaining: 86.7% and 69.0%
CYP3A4/5; human, human liver microsomes, reversible, without pre-incubation
  IC50: > 50 µM
CYP2D6
  activity loss of CYP2D6: less than 10%
CYP2B6; 1 µM
  Enzyme activity Percent of PC (%): 2.60%
CYP2B6; 3 µM
  Enzyme activity Percent of PC (%): 3.00%
CYP2B6; 10 µM
  Enzyme activity Percent of PC (%): 3.10%
CYP2B6; 20 µM
  Enzyme activity Percent of PC (%): -11.1%
CYP2B6; 30 µM
  Enzyme activity Percent of PC (%): -13.3%
CYP3A4; CYP3A4, donor seven, 1 µM
  Enzyme activity Percent of PC (%): 4.50%
CYP3A4; CYP3A4, donor seven, 3 µM
  Enzyme activity Percent of PC (%): 4.60%
CYP3A4; CYP3A4, donor seven, 10 µM
  Enzyme activity Percent of PC (%): 19.8%
CYP3A4; CYP3A4, donor seven, 20 µM
  Enzyme activity Percent of PC (%): 5.20%
CYP3A4; CYP3A4, donor seven, 30 µM
  Enzyme activity Percent of PC (%): 4.60%
CYP3A4; CYP3A4, donor six, 1 µM
  Enzyme activity Percent of PC (%): 0.50%
CYP3A4; CYP3A4, donor six, 3 µM
  Enzyme activity Percent of PC (%): 3.60%
CYP3A4; CYP3A4, donor six, 10 µM
  Enzyme activity Percent of PC (%): 19.8%
CYP3A4; CYP3A4, donor six, 20 µM
  Enzyme activity Percent of PC (%): 28.9%
CYP3A4; CYP3A4, donor six, 30 µM
  Enzyme activity Percent of PC (%): 17.7%
CYP3A4; CYP3A4, donor two, 1 µM
  Enzyme activity Percent of PC (%): 0.10%
CYP3A4; CYP3A4, donor two, 3 µM
  Enzyme activity Percent of PC (%): 0.40%
CYP3A4; CYP3A4, donor two, 10 µM
  Enzyme activity Percent of PC (%): 4.40%
CYP3A4; CYP3A4, donor two, 20 µM
  Enzyme activity Percent of PC (%): 1.30%
CYP3A4; CYP3A4, donor two, 30 µM
  Enzyme activity Percent of PC (%): 1.40%
CYP3A4; up to 30.0 µM, all three donors
  induction of CYP3A4 enzyme activity: not considered an inducer
CYP2B6 mRNA
  R3 value (CYP2B6 induction, basic kinetic model): ≤ 0.8
CYP2B6 mRNA; 20 uM
  induction on CYP2B6 mRNA expression: >2-fold induction on CYP1A2, 2B6, 3A4, 2C9 mRNA expression at 20 uM
CYP2B6 mRNA; CYP2B6, donor seven, 1 µM
  Gene expression Percent of PC (%): 9.50%
CYP2B6 mRNA; CYP2B6, donor seven, 3 µM
  Gene expression Percent of PC (%): 1.70%
CYP2B6 mRNA; CYP2B6, donor seven, 10 µM
  Gene expression Percent of PC (%): 60.8%
CYP2B6 mRNA; CYP2B6, donor seven, 20 µM
  Gene expression Percent of PC (%): 22.4%
CYP2B6 mRNA; CYP2B6, donor seven, 30 µM
  Gene expression Percent of PC (%): 43.7%
CYP2B6 mRNA; CYP2B6, donor six, 1 µM
  Gene expression Percent of PC (%): 2.50%
CYP2B6 mRNA; CYP2B6, donor six, 3 µM
  Gene expression Percent of PC (%): 5.50%
CYP2B6 mRNA; CYP2B6, donor six, 10 µM
  Gene expression Percent of PC (%): 34.3%
CYP2B6 mRNA; CYP2B6, donor six, 20 µM
  Gene expression Percent of PC (%): 36.8%
CYP2B6 mRNA; CYP2B6, donor six, 30 µM
  Gene expression Percent of PC (%): 25.2%
CYP2B6 mRNA; CYP2B6, donor two, 1 µM
  Gene expression Percent of PC (%): 5.40%
CYP2B6 mRNA; CYP2B6, donor two, 3 µM
  Gene expression Percent of PC (%): 2.30%
CYP2B6 mRNA; CYP2B6, donor two, 10 µM
  Gene expression Percent of PC (%): 29.6%
CYP2B6 mRNA; CYP2B6, donor two, 20 µM
  Gene expression Percent of PC (%): 18.1%
CYP2B6 mRNA; CYP2B6, donor two, 30 µM
  Gene expression Percent of PC (%): 39.0%
CYP2B6 mRNA; donor seven
  Emax, CYP2B6 expression: 5.42 fold
CYP2B6 mRNA; donor six
  Emax, CYP2B6 expression: 7.94 fold
CYP2B6 mRNA; donor two
  Emax, CYP2B6 expression: 3.39 fold
[1]
  cytotoxic effect on cell viability: exhibited cytotoxicity against human hepatocytes in one donor
[2]; 30 mg QD in humans
  maximal unbound plasma concentration at steady state: ~52.1 nM
[2]; human
  observed human value (Vss/F): 2.33 L/kg
  reported human CLss/F: 3.25 mL/min/kg
